Test results reported in PubChem BioAssay AID179 (DTP/NCI, 2004).
Several values for one entry are separate records, joined by “and”; a condition that tells them apart may be missing. Identical values can stand only once. Activity calls are given as the source filed them.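 The calls were made as follows: active = compounds giving half or more protection of infected cells from virus-caused growth loss, again on retest; inactive = the rest.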

System: CEM cells HIV-1 protection, formazan growth assay
Test: NCI AIDS Antiviral Assay
Details: for IC50: measured here: growth of uninfected CEM cells
How it was run: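 Soluble formazan readout of cell growth; CEM cells ± HIV-1; 5 drug concs. ≥50% protection → retest; ≥50% again = moderately active; reproducible 100% = confirmed active.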

`Clc1cc(Cc2cc(Cl)c(Cl)c3c2OCOC3)c2c(c1Cl)COCO2` was tested, and the outcome was “inactive”.
In the case of `CCOC(=O)/C=C/SCCCC(=O)O`, the IC50 is reported as > 1150 µM and 1150 µM.
For `COc1c(OC(C)=O)ccc(/C=C2\N=C(C)OC2=O)c1[N+](=O)[O-]`, the outcome was “inactive”.
With `CCCCNC(=S)SSSC(=S)NCCCC` the EC50 was > 200 µM and the IC50 was 2.75 µM.
`CN1CCN(Cc2ccccc2)CC1CC#N` (stereo not given) was tested, and the EC50 was 1.95 µM and the IC50 was > 200 µM.
For `CC(=O)Oc1cc(OC(C)=O)c(CC=C(C)C)c(-c2cc3ccc(OC(C)=O)c(C/C=C(\C)CCC=C(C)C)c3o2)c1`, the EC50 was > 4.57 µM and the IC50 was > 4.57 µM.
With `COc1ccc2c(c1)CCCN1CCc3ccccc3C21` (stereo not given) the EC50 was > 200 µM and the IC50 was 110 µM.
For `CC(C)(C)OC(=O)N(CCCN)CCCCN(CCCN)C(=O)OC(C)(C)C`, the outcome was “inactive”.
`COC(=O)CCN(CCC(=O)OC)C1CC1` was tested, and the EC50 was > 200 µM and the IC50 was > 200 µM.
In the case of `Cc1cc2c(ccc3c(C)cc(=O)oc32)o1`, the outcome is reported as “inactive”.
With `C[C@@H](NC(=O)Cn1c(Cl)nc2ccccc21)c1ccccc1` the EC50 was > 200 µM and the IC50 was 13.5 µM.
In the case of `O=C(N/C(=C\c1ccc(F)cc1)c1nc2ccccc2[nH]1)c1ccccc1`, the EC50 is reported as > 191 µM and the IC50 is reported as > 191 µM.
In the case of `COC(=O)C1(C(C)C)CCc2c(OC)ccc(OC)c2C1=O` (stereo not given), the outcome is reported as “inactive”.
For `C/C(=C/C(=O)Nn1c(Cc2ccccc2)n[nH]c1=O)C(=O)O`, the EC50 was > 200 µM and the IC50 was > 200 µM.
With `O=[N+]([O-])c1ccc(C[P+](c2ccccc2)(c2ccccc2)c2ccccc2)cc1` the EC50 was > 200 µM and the IC50 was 87.1 µM and 40.7 µM.
With `C=C(c1ccc(OC)cc1)C(CC)c1ccc(OC)cc1` (stereo not given) the EC50 was > 200 µM and the IC50 was 37.2 µM.
For `CC(=O)Oc1c2c(cc3c1C(=O)NC1C3=CC(OC(C)=O)[C@@H](OC(C)=O)[C@H]1OC(C)=O)OCO2` (stereo not given in full), the outcome was “inactive”.
In the case of `O=C1C=CC(=O)c2c1ccc1c3ccccc3n(Cc3cccc([N+](=O)[O-])c3)c21`, the EC50 is reported as > 200 µM and the IC50 is reported as 1.35 µM.
In the case of `COc1ccccc1OS(=O)(=O)c1ccc(C)cc1`, the outcome is reported as “inactive”.
In the case of `C/C=C(/CCO)[Si](C)(C)C`, the outcome is reported as “inactive”.
In the case of `COc1cc2c(cc1OC)C(O)[C@H](Br)C(C)(C)O2` (stereo not given in full), the EC50 is reported as > 158 µM and the IC50 is reported as 89.1 µM.
`CC(C(=O)O)c1cnn(-c2ccccc2)c1-n1cccc1` (stereo not given) was tested, and the outcome was “inactive”.
With `COc1ccc(C(=O)CC(c2ccc3c(c2)OCO3)c2c(O)c3ccccc3oc2=O)cc1OC` (stereo not given) the EC50 was > 200 µM and the IC50 was 89.1 µM.
For `COC1(OC)C2(Cl)CCC1(Cl)C(OC(C)=O)C2` (stereo not given), the EC50 was > 200 µM and the IC50 was 145 µM.
With `COc1ccc(/C=C/CO)cc1OC` the outcome was “inactive”.
For `CCn1c(=O)c2c3ccc(OC)cc3[nH]c2c2ccc(OC)cc21`, the EC50 was > 200 µM and the IC50 was 56.2 µM.
For `O=c1[nH]c2cc([N+](=O)[O-])ccc2nc1/C=C(\O)c1ccc(Cl)cc1`, the EC50 was > 100 µM and the IC50 was 87.1 µM.
In the case of `Cc1cccc(NC(=O)Nc2ccccc2F)n1`, the EC50 is reported as > 200 µM and the IC50 is reported as > 200 µM.
`C=CC(C)(CC/C=C(\C)CCC=C(C)C)c1cc(O)c(O)c(-c2cc(C(C)(C=C)CC/C=C(\C)CCC=C(C)C)cc(O)c2O)c1` (stereo not given) was tested, and the EC50 was > 5.75 µM and the IC50 was > 5.75 µM.
`CC(C)=CCC[C@@H](C)C1=C(O)C(Nc2ccccc2)=C(C)C(=O)C1=O` was tested, and the EC50 was > 200 µM and the IC50 was 13.2 µM.
With `O=C(O)CCCCCCCc1cccc(OCCOCCO)c1` the EC50 was > 100 µM and the IC50 was > 100 µM.
`Cc1nc(Nc2ccc([N+](=O)[O-])cc2)sc1C(/C=C/c1ccc(N(C)C)cc1)=N/NC(=O)c1ccccc1` was tested, and the EC50 was > 13.8 µM and the IC50 was > 13.8 µM.
`CC1=C(C(=O)CC(=O)C(=O)NC2C3CC4CC(C3)CC2C4)Sc2ccccc2N1` (stereo not given) was tested, and the EC50 was > 9.12 µM and the IC50 was > 9.12 µM.
With `CC(=O)OCN(C)c1nc(N(C)COC(C)=O)nc(N(C)COC(C)=O)n1` the EC50 was > 50.1 µM and the IC50 was > 50.1 µM.
For `Fc1c(F)c(F)c2c(c1F)CSc1nc3ccccc3n1-2`, the EC50 was > 200 µM and the IC50 was > 200 µM.
For `N#CC(C(=N/O)/C(=N/O)C(C#N)c1ccc(Cl)cc1)c1ccc(Cl)cc1` (stereo not given), the EC50 was > 468 µM and the IC50 was 178 µM.
For `C/C(=N\Nc1ccc2ccccc2n1)c1ccccn1`, the EC50 was > 0.2 µM and the IC50 was 0.11 µM.
With `CSc1ccc(Nc2cc(=O)[nH]c(=O)[nH]2)cc1` the EC50 was > 200 µM and the IC50 was > 200 µM.
